In article PMC5218480 (PLoS ONE, 2017):

Tested on: MV-4-11 cells
Experiment: Gene expression microarray analysis (Affymetrix PrimeView) and GSEA
Format: cell-based, human
Parameters: RFU PODN (11730768_x_at) / Fold change /veh PODN (11730768_x_at) / RFU LINC00158 (11744669_a_at) / Fold change /veh LINC00158 (11744669_a_at) / RFU DUSP10 (11751237_a_at) / Fold change /veh DUSP10 (11751237_a_at) / RFU ID3 (11757404_x_at) / Fold change /veh ID3 (11757404_x_at) / RFU PLEKHG5 (11737974_s_at) / Fold change /veh PLEKHG5 (11737974_s_at) / RFU LRRC4B (11730491_at) / Fold change /veh LRRC4B (11730491_at) / RFU GIMAP4 (11747438_a_at) / Fold change /veh GIMAP4 (11747438_a_at) / RFU KRT8 (11758183_x_at) / Fold change /veh KRT8 (11758183_x_at) / RFU CNN1 (11734310_a_at) / Fold change /veh CNN1 (11734310_a_at) / RFU VPS37D (11726825_at) / Fold change /veh VPS37D (11726825_at) / RFU C10orf10 (11716522_x_at) / Fold change /veh C10orf10 (11716522_x_at) / RFU KIR2DL2 /// KIR2DL4 /// KIR2DL5A /// KIR2DL5B /// KIR2DS1 /// KIR2DS2 /// KIR2DS3 /// KIR2DS4 /// KIR3DL3 /// KIR3DL3 /// KIR3DS1 (11738374_at) / Fold change /veh KIR2DL2 /// KIR2DL4 /// KIR2DL5A /// KIR2DL5B /// KIR2DS1 /// KIR2DS2 /// KIR2DS3 /// KIR2DS4 /// KIR3DL3 /// KIR3DL3 /// KIR3DS1 (11738374_at) / RFU C1QL1 (11718748_at) / Fold change /veh C1QL1 (11718748_at) / RFU TMPRSS4 (11747572_a_at) / Fold change /veh TMPRSS4 (11747572_a_at) / RFU HAMP (11756126_x_at) / Fold change /veh HAMP (11756126_x_at) / RFU RNFT2 (11725882_a_at) / Fold change /veh RNFT2 (11725882_a_at) / RFU NR4A2 (11747474_a_at) / Fold change /veh NR4A2 (11747474_a_at) / RFU ABCC12 (11746883_a_at) / Fold change /veh ABCC12 (11746883_a_at) / RFU TMEM136 (11760407_x_at) / Fold change /veh TMEM136 (11760407_x_at) / RFU CLDN22 /// WWC2 (11732394_at) / Fold change /veh CLDN22 /// WWC2 (11732394_at) / RFU HLA-DPB1 (11760878_x_at) / Fold change /veh HLA-DPB1 (11760878_x_at) / RFU SPINT1 (11716480_a_at) / Fold change /veh SPINT1 (11716480_a_at) / RFU GAP43 (11754022_s_at) / Fold change /veh GAP43 (11754022_s_at) / RFU A4GNT (11735810_at) / Fold change /veh A4GNT (11735810_at) / RFU PRB3 (11715151_x_at) / Fold change /veh PRB3 (11715151_x_at) / RFU TUBB4B (11761932_at) / Fold change /veh TUBB4B (11761932_at) / RFU CAPN14 (11732068_a_at) / Fold change /veh CAPN14 (11732068_a_at) / RFU TMCC2 (11721928_a_at) / Fold change /veh TMCC2 (11721928_a_at) / RFU IRGQ (11745062_a_at) / Fold change /veh IRGQ (11745062_a_at) / RFU FAM174B (11720279_a_at) / Fold change /veh FAM174B (11720279_a_at) / RFU TMPRSS4 (11748680_a_at) / Fold change /veh TMPRSS4 (11748680_a_at) / RFU FAM212B (11763350_a_at) / Fold change /veh FAM212B (11763350_a_at) / RFU PLEKHG5 (11743358_a_at) / Fold change /veh PLEKHG5 (11743358_a_at) / RFU ZSCAN30 (11745921_a_at) / Fold change /veh ZSCAN30 (11745921_a_at) / RFU CMKLR1 (11741424_a_at) / Fold change /veh CMKLR1 (11741424_a_at) / RFU LOC101060620 /// MAPK8IP1 (11723275_at) / Fold change /veh LOC101060620 /// MAPK8IP1 (11723275_at) / RFU SPTSSB (11747773_x_at) / Fold change /veh SPTSSB (11747773_x_at) / RFU PRSS12 (11739890_at) / Fold change /veh PRSS12 (11739890_at) / RFU BIN1 (11741810_x_at) / Fold change /veh BIN1 (11741810_x_at) / RFU WNT11 (11732464_a_at) / Fold change /veh WNT11 (11732464_a_at) / RFU C10orf10 (11716521_a_at) / Fold change /veh C10orf10 (11716521_a_at) / RFU C5orf56 (11738089_at) / Fold change /veh C5orf56 (11738089_at) / RFU CYB561 (11721691_x_at) / Fold change /veh CYB561 (11721691_x_at) / RFU ANKRD19P (11752326_a_at) / Fold change /veh ANKRD19P (11752326_a_at) / RFU OR2T12 /// OR2T33 /// OR2T8 (11738714_s_at) / Fold change /veh OR2T12 /// OR2T33 /// OR2T8 (11738714_s_at) / RFU VCAN (11748164_a_at) / Fold change /veh VCAN (11748164_a_at) / RFU JSRP1 (11732532_at) / Fold change /veh JSRP1 (11732532_at) / RFU KRTAP10-11 (11738290_x_at) / Fold change /veh KRTAP10-11 (11738290_x_at) / RFU MYO3A (11730013_a_at) / Fold change /veh MYO3A (11730013_a_at) / RFU EBF3 (11725865_a_at) / Fold change /veh EBF3 (11725865_a_at) / RFU CAMK2N1 (11719241_x_at) / Fold change /veh CAMK2N1 (11719241_x_at) / RFU C5orf56 (11738088_a_at) / Fold change /veh C5orf56 (11738088_a_at) / RFU OLFML3 (11715873_a_at) / Fold change /veh OLFML3 (11715873_a_at) / RFU LOC100653217 /// NTM (11731650_a_at) / Fold change /veh LOC100653217 /// NTM (11731650_a_at) / RFU MAPK11 (11762145_a_at) / Fold change /veh MAPK11 (11762145_a_at) / RFU FIZ1 (11724087_x_at) / Fold change /veh FIZ1 (11724087_x_at) / RFU OASL (11726364_x_at) / Fold change /veh OASL (11726364_x_at) / RFU SOX15 (11748057_x_at) / Fold change /veh SOX15 (11748057_x_at) / RFU CD79A (11719716_a_at) / Fold change /veh CD79A (11719716_a_at) / RFU HIST1H1D (11736915_at) / Fold change /veh HIST1H1D (11736915_at) / RFU CASKIN2 (11723855_a_at) / Fold change /veh CASKIN2 (11723855_a_at) / RFU LOC730098 (11760151_x_at) / Fold change /veh LOC730098 (11760151_x_at) / RFU OR4N2 (11742367_at) / Fold change /veh OR4N2 (11742367_at) / RFU PRRT2 (11749266_a_at) / Fold change /veh PRRT2 (11749266_a_at) / RFU SNX32 (11753110_a_at) / Fold change /veh SNX32 (11753110_a_at) / RFU CDHR5 (11726645_a_at) / Fold change /veh CDHR5 (11726645_a_at) / RFU RCAN1 (11760418_a_at) / Fold change /veh RCAN1 (11760418_a_at) / RFU FAM167A (11723789_a_at) / Fold change /veh FAM167A (11723789_a_at) / RFU FAM26E (11764081_at) / Fold change /veh FAM26E (11764081_at) / RFU ISYNA1 (11749810_s_at) / Fold change /veh ISYNA1 (11749810_s_at) / RFU ACY1 (11761880_at) / Fold change /veh ACY1 (11761880_at) / RFU 11764098_at / Fold change /veh 11764098_at / RFU SAMD14 (11745864_x_at) / Fold change /veh SAMD14 (11745864_x_at) / RFU NPB (11741838_a_at) / Fold change /veh NPB (11741838_a_at) / RFU TMPRSS6 (11731388_a_at) / Fold change /veh TMPRSS6 (11731388_a_at) / RFU KRTAP10-2 (11738614_at) / Fold change /veh KRTAP10-2 (11738614_at) / RFU ARHGAP8 /// PRR5-ARHGAP8 (11727945_x_at) / Fold change /veh ARHGAP8 /// PRR5-ARHGAP8 (11727945_x_at) / RFU KRTAP5-7 /// NADSYN1 (11734609_at) / Fold change /veh KRTAP5-7 /// NADSYN1 (11734609_at) / RFU RASL12 (11751679_a_at) / Fold change /veh RASL12 (11751679_a_at) / RFU CDKN2B (11736163_a_at) / Fold change /veh CDKN2B (11736163_a_at) / RFU PRF1 (11729649_at) / Fold change /veh PRF1 (11729649_at) / RFU, ZNF638 /// ZNF638-IT1 / Fold change vs veh, ZNF638 /// ZNF638-IT1 / RFU, PANK3 / Fold change vs veh, PANK3 / RFU, SH3YL1 / Fold change vs veh, SH3YL1 / RFU, ZEB2 / Fold change vs veh, ZEB2 / RFU, NRIP1 / Fold change vs veh, NRIP1 / RFU, PTTG1IP / Fold change vs veh, PTTG1IP / RFU, CAPN2 / Fold change vs veh, CAPN2 / RFU, MED14 / Fold change vs veh, MED14 / RFU, SNORA58 / Fold change vs veh, SNORA58 / RFU, C1orf63 / Fold change vs veh, C1orf63 / RFU, LRRFIP1 / Fold change vs veh, LRRFIP1 / RFU, NDUFAF7 / Fold change vs veh, NDUFAF7 / RFU, SLC12A2 / Fold change vs veh, SLC12A2 / RFU, IBTK / Fold change vs veh, IBTK / RFU, ESF1 / Fold change vs veh, ESF1 / Fold change vs veh, TMEM50B / RFU, TAOK1 / Fold change vs veh, TAOK1 / RFU, ACBD3 / Fold change vs veh, ACBD3 / RFU, TMA16 / Fold change vs veh, TMA16 / RFU, RWDD3 / Fold change vs veh, RWDD3 / RFU, BCAT1 / Fold change vs veh, BCAT1 / RFU, EDEM3 / Fold change vs veh, EDEM3 / RFU, TMEM33 / Fold change vs veh, TMEM33 / RFU, WDR75 / Fold change vs veh, WDR75 / RFU, AHCTF1 / Fold change vs veh, AHCTF1 / RFU, TFRC / Fold change vs veh, TFRC / RFU, ZDHHC17 / Fold change vs veh, ZDHHC17 / RFU, NOM1 / Fold change vs veh, NOM1 / RFU, ARL8B / Fold change vs veh, ARL8B / RFU, ZBTB11 / Fold change vs veh, ZBTB11 / RFU, TAMM41 / Fold change vs veh, TAMM41 / RFU, KIAA1704 /// LOC100996395 / Fold change vs veh, KIAA1704 /// LOC100996395 / RFU, ING1 / Fold change vs veh, ING1 / RFU, TRMT61B / Fold change vs veh, TRMT61B / RFU, FUBP3 / Fold change vs veh, FUBP3 / RFU, TP53 / Fold change vs veh, TP53 / RFU, TNKS2 / Fold change vs veh, TNKS2 / RFU, ZFP14 / Fold change vs veh, ZFP14 / RFU, ACTR2 / Fold change vs veh, ACTR2 / RFU, PPP3R1 / Fold change vs veh, PPP3R1 / RFU, PIK3R1 / Fold change vs veh, PIK3R1 / RFU, HNRNPA1 / Fold change vs veh, HNRNPA1 / RFU, RNF170 / Fold change vs veh, RNF170 / RFU, ZNF28 / Fold change vs veh, ZNF28 / RFU, RNGTT / Fold change vs veh, RNGTT / RFU, OGT / Fold change vs veh, OGT / RFU, BRD1 / Fold change vs veh, BRD1 / RFU, MARS / Fold change vs veh, MARS / RFU, ZNF655 / Fold change vs veh, ZNF655 / RFU, FAHD1 / Fold change vs veh, FAHD1 / RFU, BDP1 / Fold change vs veh, BDP1 / RFU, LRRCC1 / Fold change vs veh, LRRCC1 / RFU, ARID1A / Fold change vs veh, ARID1A / RFU, ZNF146 / Fold change vs veh, ZNF146 / RFU, ZNF330 / Fold change vs veh, ZNF330 / RFU, GPN3 / Fold change vs veh, GPN3 / RFU, C9orf123 / Fold change vs veh, C9orf123 / RFU, N4BP2L2 / Fold change vs veh, N4BP2L2 / RFU, ARFIP1 / Fold change vs veh, ARFIP1 / RFU, FAM179B / Fold change vs veh, FAM179B / RFU, BCL10 / Fold change vs veh, BCL10 / RFU, UHRF1BP1L / Fold change vs veh, UHRF1BP1L / RFU, BET1 / Fold change vs veh, BET1 / RFU, CNOT2 / Fold change vs veh, CNOT2 / RFU, ZNF268 / Fold change vs veh, ZNF268 / Fold change vs veh, ZNF507 / RFU, DGCR2 / Fold change vs veh, DGCR2 / RFU, WDSUB1 / Fold change vs veh, WDSUB1 / Fold change vs veh, HSP90B1 /// MIR3652 / RFU, ADSS / Fold change vs veh, ADSS / RFU, GK / Fold change vs veh, GK / RFU, ZNF148 / Fold change vs veh, ZNF148 / RFU, TAF9 / Fold change vs veh, TAF9 / RFU, SLC1A5 / Fold change vs veh, SLC1A5 / RFU, SLMO2 / Fold change vs veh, SLMO2 / RFU, ABCC4 / Fold change vs veh, ABCC4 / RFU, LOC101060439 /// RAP1B / Fold change vs veh, LOC101060439 /// RAP1B / RFU, RFX7 / Fold change vs veh, RFX7 / RFU, GTPBP10 / Fold change vs veh, GTPBP10 / RFU, CNEP1R1 / Fold change vs veh, CNEP1R1 / RFU, BIVM-ERCC5 /// ERCC5 / Fold change vs veh, BIVM-ERCC5 /// ERCC5 / RFU, ILF3 / Fold change vs veh, ILF3 / RFU 11762660_at / Fold change /veh 11762660_at / RFU VCAN (11757783_s_at) / Fold change /veh VCAN (11757783_s_at) / RFU DDX43 (11728927_at) / Fold change /veh DDX43 (11728927_at) / RFU KRT8 (11758188_x_at) / Fold change /veh KRT8 (11758188_x_at) / RFU NKD1 (11759106_at) / Fold change /veh NKD1 (11759106_at) / RFU SRD5A1 (11742802_a_at) / Fold change /veh SRD5A1 (11742802_a_at) / RFU TPSAB1 /// TPSB2 (11721975_s_at) / Fold change /veh TPSAB1 /// TPSB2 (11721975_s_at) / RFU GSTM3 (11746129_a_at) / Fold change /veh GSTM3 (11746129_a_at) / RFU IL23R (11737362_x_at) / Fold change /veh IL23R (11737362_x_at) / RFU TMEM51 (11727254_a_at) / Fold change /veh TMEM51 (11727254_a_at) / RFU PIWIL2 (11732686_x_at) / Fold change /veh PIWIL2 (11732686_x_at) / RFU ORM1 (11744905_x_at) / Fold change /veh ORM1 (11744905_x_at) / RFU CCDC152 (11743942_at) / Fold change /veh CCDC152 (11743942_at) / RFU ECM1 (11717891_a_at) / Fold change /veh ECM1 (11717891_a_at) / RFU IL23R (11748794_a_at) / Fold change /veh IL23R (11748794_a_at) / RFU TNFAIP8L3 (11732012_x_at) / Fold change /veh TNFAIP8L3 (11732012_x_at) / RFU MBOAT4 (11741988_at) / Fold change /veh MBOAT4 (11741988_at) / RFU 11764193_at / Fold change /veh 11764193_at / RFU TMEM53 (11763286_at) / Fold change /veh TMEM53 (11763286_at) / RFU MAGEB2 (11727129_at) / Fold change /veh MAGEB2 (11727129_at) / RFU TMEM200A (11744735_a_at) / Fold change /veh TMEM200A (11744735_a_at) / RFU CCDC152 (11751479_a_at) / Fold change /veh CCDC152 (11751479_a_at) / RFU FAM211A (11726209_a_at) / Fold change /veh FAM211A (11726209_a_at) / RFU RGS16 (11746705_a_at) / Fold change /veh RGS16 (11746705_a_at) / RFU VCAN (11755009_s_at) / Fold change /veh VCAN (11755009_s_at) / RFU RHOB (11743442_s_at) / Fold change /veh RHOB (11743442_s_at) / RFU RGS16 (11720943_a_at) / Fold change /veh RGS16 (11720943_a_at) / RFU RGS16 (11720944_at) / Fold change /veh RGS16 (11720944_at) / RFU, VPS4B / Fold change vs veh, VPS4B / RFU, CREB1 / Fold change vs veh, CREB1 / RFU, DNAJC13 / Fold change vs veh, DNAJC13 / RFU, GNAQ / Fold change vs veh, GNAQ / RFU, CDK5R1 / Fold change vs veh, CDK5R1 / RFU, ZRANB3 / Fold change vs veh, ZRANB3 / RFU, CUL4A / Fold change vs veh, CUL4A / RFU, CCNY / Fold change vs veh, CCNY / RFU, UFL1 / Fold change vs veh, UFL1 / RFU, COG3 / Fold change vs veh, COG3 / RFU, DIAPH2 / Fold change vs veh, DIAPH2 / RFU, SKA2 / Fold change vs veh, SKA2 / RFU, AFF3 / Fold change vs veh, AFF3 / RFU, LMF1 / Fold change vs veh, LMF1 / RFU, IPO11 / Fold change vs veh, IPO11 / RFU, DFFB / Fold change vs veh, DFFB / RFU, FOXP1 / Fold change vs veh, FOXP1 / RFU, CARD8 / Fold change vs veh, CARD8 / RFU, STRN3 / Fold change vs veh, STRN3 / RFU, ADK / Fold change vs veh, ADK / RFU, RASSF2 / Fold change vs veh, RASSF2 / RFU, WIPF1 / Fold change vs veh, WIPF1 / RFU, LARP1B / Fold change vs veh, LARP1B / RFU, RASA1 / Fold change vs veh, RASA1 / RFU, RB1 / Fold change vs veh, RB1 / RFU, PPFIA1 / Fold change vs veh, PPFIA1 / RFU, MAT2A / Fold change vs veh, MAT2A / RFU, CCT5 / Fold change vs veh, CCT5 / RFU, WDR92 / Fold change vs veh, WDR92 / RFU, CUX1 / Fold change vs veh, CUX1 / RFU, TTC7A / Fold change vs veh, TTC7A / RFU, TMEM135 / Fold change vs veh, TMEM135 / RFU, DEPTOR / Fold change vs veh, DEPTOR / RFU, CPM / Fold change vs veh, CPM / RFU, DNAJB6 / Fold change vs veh, DNAJB6 / RFU, CACNA2D3 / Fold change vs veh, CACNA2D3 / RFU, DTX4 / Fold change vs veh, DTX4 / RFU, TFCP2 / Fold change vs veh, TFCP2 / RFU, GMCL1 /// GMCL1P1 / Fold change vs veh, GMCL1 /// GMCL1P1 / RFU, AEBP2 / Fold change vs veh, AEBP2 / RFU, SNHG1 /// SNORD22 /// SNORD25 /// SNORD26 /// SNORD27 /// SNORD28 /// SNORD29 /// SNORD31 / Fold change vs veh, SNHG1 /// SNORD22 /// SNORD25 /// SNORD26 /// SNORD27 /// SNORD28 /// SNORD29 /// SNORD31 / Fold change (Aza/veh), C12orf56 (ProbeSet 11735607_a_at) / Fold change (ACY-1035/veh), C12orf56 (ProbeSet 11735607_a_at) / Fold change (Aza/veh), FGFR1OP (ProbeSet 11751329_s_at) / Fold change (ACY-1035/veh), FGFR1OP (ProbeSet 11751329_s_at) / Fold change (Aza/veh), VPS36 (ProbeSet 11739960_a_at) / Fold change (ACY-1035/veh), VPS36 (ProbeSet 11739960_a_at) / RFU SYPL1 (11715823_x_at) / Fold change /veh SYPL1 (11715823_x_at) / RFU IGFBP7 (11715501_s_at) / Fold change /veh IGFBP7 (11715501_s_at) / RFU REEP3 (11722064_at) / Fold change /veh REEP3 (11722064_at) / RFU IGLL1 (11728026_x_at) / Fold change /veh IGLL1 (11728026_x_at): dose or concentration left out as unconfirmed
Conditions: MV-4-11 cells, 48 hours

Nc1ncn([C@@H]2O[C@H](CO)[C@@H](O)[C@H]2O)c(=O)n1 [azacitidine]
RFU PRB3 (11715151_x_at): 8.00 RFU
